Assays:
late watergrass = experiment: Test Example 1: herbicidal activity, application before weed generation under submerged conditions (Table 16, symbol A); assay type: in vivo, late watergrass (Echinochloa oryzicola); details: 320 g/ha applied herbicide
Summary of the method: (§1)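 Submerged Wagner pots (alluvial soil, 4 cm water) sown with weed seeds and planted with 2.5-leaf rice seedlings; emulsifiable concentrate diluted in water applied to water surface on sowing day. Held in greenhouse at 25-30 °C; injury scored 0-5 by herbicidal rate after three weeks.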

Japanese bulrush = experiment: Test Example 1: herbicidal activity, application before weed generation under submerged conditions (Table 16, symbol B); assay type: in vivo, Japanese bulrush (Schoenoplectus juncoides); details: 320 g/ha applied herbicide
Summary of the method: as §1

oval-leafed pondweed = experiment: Test Example 1: herbicidal activity, application before weed generation under submerged conditions (Table 16, symbol C); assay type: in vivo, oval-leafed pondweed (Monochoria vaginalis); details: 320 g/ha applied herbicide
Summary of the method: as §1

barnyard grass [1] = experiment: Test Example 3: herbicidal effect by foliage application, Wagner pot (Table 18, symbol H); assay type: in vivo, barnyard grass (Echinochloa crus-galli); details: amount of applied herbicide 320 g/ha
Summary of the method: (§2)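 Plants were sown in alluvial soil held under 0.1–0.5 cm standing water and grown 14 days in a greenhouse at 25–30 °C. An emulsifiable formulation, water-diluted to the set dose, was then sprayed onto the foliage, and effects were scored three weeks later using previously defined criteria.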

Chinese sprangletop = experiment: Test Example 3: herbicidal effect by foliage application, Wagner pot (Table 18, symbol D); assay type: in vivo, chinese sprangletop (Leptochloa chinensis); details: amount of applied herbicide 320 g/ha
Summary of the method: as §2

rice flat sedge = experiment: Test Example 3: herbicidal effect by foliage application, Wagner pot (Table 18, symbol E); assay type: in vivo, rice flat sedge (Cyperus iria); details: amount of applied herbicide 320 g/ha
Summary of the method: as §2

southern crabgrass [2] = experiment: Test Example 4: herbicidal effect by soil treatment (Table 19, symbol F); assay type: in vivo, southern crabgrass (Digitaria ciliaris); details: amount of applied herbicide 320 g/ha
Summary of the method: (§3)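 Scoring uses the grading scale of an earlier test, three weeks post-application. Treatment consists of spraying a diluted emulsion formulation across the surface of sterilized diluvial soil in which seeds are buried near 1.5 cm deep; boxes are kept in a greenhouse between 25° C. and 30° C.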

green foxtail [3] = experiment: Test Example 4: herbicidal effect by soil treatment (Table 19, symbol G); assay type: in vivo, green foxtail (Setaria viridis); details: amount of applied herbicide 320 g/ha
Summary of the method: as §3

barnyard grass [4] = experiment: Test Example 4: herbicidal effect by soil treatment (Table 19, symbol H); assay type: in vivo, barnyard grass (Echinochloa crus-galli); details: amount of applied herbicide 320 g/ha
Summary of the method: as §3

wild oat [5] = experiment: Test Example 4: herbicidal effect by soil treatment (Table 19, symbol I); assay type: in vivo, wild oat (Avena fatua); details: amount of applied herbicide 320 g/ha
Summary of the method: as §3

Italian ryegrass [6] = experiment: Test Example 4: herbicidal effect by soil treatment (Table 19, symbol K); assay type: in vivo, Italian ryegrass (Lolium multiflorum); details: amount of applied herbicide 320 g/ha
Summary of the method: as §3

windgrass [7] = experiment: Test Example 4: herbicidal effect by soil treatment (Table 19, symbol L); assay type: in vivo, windgrass (Apera spica-venti); details: amount of applied herbicide 320 g/ha
Summary of the method: as §3

velvetleaf [8] = experiment: Test Example 4: herbicidal effect by soil treatment (Table 19, symbol M); assay type: in vivo, velvetleaf (Abutilon theophrasti); details: amount of applied herbicide 320 g/ha
Summary of the method: as §3

redroot pigweed [9] = experiment: Test Example 4: herbicidal effect by soil treatment (Table 19, symbol N); assay type: in vivo, redroot pigweed (Amaranthus retroflexus); details: amount of applied herbicide 320 g/ha
Summary of the method: as §3

lambsquarters [10] = experiment: Test Example 4: herbicidal effect by soil treatment (Table 19, symbol O); assay type: in vivo, lambsquarters (Chenopodium album); details: amount of applied herbicide 320 g/ha
Summary of the method: as §3

chickweed [11] = experiment: Test Example 4: herbicidal effect by soil treatment (Table 19, symbol P); assay type: in vivo, common chickweed (Stellaria media); details: amount of applied herbicide 320 g/ha
Summary of the method: as §3

persian speedwell [12] = experiment: Test Example 4: herbicidal effect by soil treatment (Table 19, symbol R); assay type: in vivo, Persian speedwell (Veronica persica); details: amount of applied herbicide 320 g/ha
Summary of the method: as §3

southern crabgrass [13] = experiment: Test Example 5: herbicidal effect by foliage application, plastic box (Table 20, symbol F); assay type: in vivo, southern crabgrass (Digitaria ciliaris); details: foliage application, 320 g/ha, evaluated three weeks after application
Summary of the method: (§4)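 Post-emergence foliar test in sterilized diluvial soil. Compound applied as water-diluted emulsion at a predetermined rate to 14-day-old plants; evaluation at three weeks.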

green foxtail [14] = experiment: Test Example 5: herbicidal effect by foliage application, plastic box (Table 20, symbol G); assay type: in vivo, green foxtail (Setaria viridis); details: foliage application, 320 g/ha, evaluated three weeks after application
Summary of the method: as §4

barnyard grass [15] = experiment: Test Example 5: herbicidal effect by foliage application, plastic box (Table 20, symbol H); assay type: in vivo, barnyard grass (Echinochloa crus-galli); details: foliage application, 320 g/ha, evaluated three weeks after application
Summary of the method: as §4

wild oat [16] = experiment: Test Example 5: herbicidal effect by foliage application, plastic box (Table 20, symbol I); assay type: in vivo, wild oat (Avena fatua); details: foliage application, 320 g/ha, evaluated three weeks after application
Summary of the method: as §4

blackgrass = experiment: Test Example 5: herbicidal effect by foliage application, plastic box (Table 20, symbol J); assay type: in vivo, blackgrass (Alopecurus myosuroides); details: foliage application, 320 g/ha, evaluated three weeks after application
Summary of the method: as §4

Italian ryegrass [17] = experiment: Test Example 5: herbicidal effect by foliage application, plastic box (Table 20, symbol K); assay type: in vivo, Italian ryegrass (Lolium multiflorum); details: foliage application, 320 g/ha, evaluated three weeks after application
Summary of the method: as §4

windgrass [18] = experiment: Test Example 5: herbicidal effect by foliage application, plastic box (Table 20, symbol L); assay type: in vivo, windgrass (Apera spica-venti); details: foliage application, 320 g/ha, evaluated three weeks after application
Summary of the method: as §4

velvetleaf [19] = experiment: Test Example 5: herbicidal effect by foliage application, plastic box (Table 20, symbol M); assay type: in vivo, velvetleaf (Abutilon theophrasti); details: foliage application, 320 g/ha, evaluated three weeks after application
Summary of the method: as §4

redroot pigweed [20] = experiment: Test Example 5: herbicidal effect by foliage application, plastic box (Table 20, symbol N); assay type: in vivo, redroot pigweed (Amaranthus retroflexus); details: foliage application, 320 g/ha, evaluated three weeks after application
Summary of the method: as §4

lambsquarters [21] = experiment: Test Example 5: herbicidal effect by foliage application, plastic box (Table 20, symbol O); assay type: in vivo, lambsquarters (Chenopodium album); details: foliage application, 320 g/ha, evaluated three weeks after application
Summary of the method: as §4

chickweed [22] = experiment: Test Example 5: herbicidal effect by foliage application, plastic box (Table 20, symbol P); assay type: in vivo, common chickweed (Stellaria media); details: foliage application, 320 g/ha, evaluated three weeks after application
Summary of the method: as §4

persian speedwell [23] = experiment: Test Example 5: herbicidal effect by foliage application, plastic box (Table 20, symbol R); assay type: in vivo, Persian speedwell (Veronica persica); details: foliage application, 320 g/ha, evaluated three weeks after application
Summary of the method: as §4

For `CCCC(=O)Oc1c(C)nn(C)c(=O)c1-c1c(-c2cccc(OC(F)(F)F)c2)sc2ccc(F)cc12` [2-237], the “Herbicidal effect on A: late watergrass (grade 0-5)” value (late watergrass) was 3 (Herbicidal rate of 40% or more and less than 70%), the “Herbicidal effect on B: Japanese bulrush (grade 0-5)” value (Japanese bulrush) was 0 (Herbicidal rate of 5% or less (almost no effect)) and the “Herbicidal effect on C: oval-leafed pondweed (grade 0-5)” value (oval-leafed pondweed) was 0 (Herbicidal rate of 5% or less (almost no effect)). The “herbicidal effect on H: barnyard grass” value (barnyard grass [1]) was 3 (Herbicidal rate of 40% or more and less than 70%), the “herbicidal effect on D: Chinese sprangletop” value (Chinese sprangletop) was 4 (Herbicidal rate of 70% or more and less than 90%) and the “herbicidal effect on E: rice flat sedge” value (rice flat sedge) was 5 (Herbicidal rate of 90% or more (almost completely withered)). For the same molecule, the “herbicidal effect on F: southern crabgrass” value (southern crabgrass [2]) was 0 (Herbicidal rate of 5% or less (almost no effect)), the “herbicidal effect on G: green foxtail” value (green foxtail [3]) was 0 (Herbicidal rate of 5% or less (almost no effect)) and the “herbicidal effect on H: barnyard grass” value (barnyard grass [4]) was 0 (Herbicidal rate of 5% or less (almost no effect)). The “herbicidal effect on I: wild oat” value (wild oat [5]) was 0 (Herbicidal rate of 5% or less (almost no effect)), the “herbicidal effect on K: Italian ryegrass” value (Italian ryegrass [6]) was 0 (Herbicidal rate of 5% or less (almost no effect)) and the “herbicidal effect on L: windgrass” value (windgrass [7]) was 0 (Herbicidal rate of 5% or less (almost no effect)). For the same molecule, the “herbicidal effect on M: velvetleaf” value (velvetleaf [8]) was 0 (Herbicidal rate of 5% or less (almost no effect)), the “herbicidal effect on N: redroot pigweed” value (redroot pigweed [9]) was 0 (Herbicidal rate of 5% or less (almost no effect)) and the “herbicidal effect on O: lambsquarters” value (lambsquarters [10]) was 0 (Herbicidal rate of 5% or less (almost no effect)). For the same molecule, the “herbicidal effect on P: chickweed” value (chickweed [11]) was 5 (Herbicidal rate of 90% or more (almost completely withered)), the “herbicidal effect on R: persian speedwell” value (persian speedwell [12]) was 0 (Herbicidal rate of 5% or less (almost no effect)) and the “herbicidal effect on F: southern crabgrass (criteria 0-5)” value (southern crabgrass [13]) was 0 (Herbicidal rate of 5% or less (almost no effect)). The “herbicidal effect on G: green foxtail (criteria 0-5)” value (green foxtail [14]) was 0 (Herbicidal rate of 5% or less (almost no effect)), the “herbicidal effect on H: barnyard grass (criteria 0-5)” value (barnyard grass [15]) was 0 (Herbicidal rate of 5% or less (almost no effect)) and the “herbicidal effect on I: wild oat (criteria 0-5)” value (wild oat [16]) was 0 (Herbicidal rate of 5% or less (almost no effect)). The “herbicidal effect on J: blackgrass (criteria 0-5)” value (blackgrass) was 0 (Herbicidal rate of 5% or less (almost no effect)), the “herbicidal effect on K: Italian ryegrass (criteria 0-5)” value (Italian ryegrass [17]) was 0 (Herbicidal rate of 5% or less (almost no effect)) and the “herbicidal effect on L: windgrass (criteria 0-5)” value (windgrass [18]) was 0 (Herbicidal rate of 5% or less (almost no effect)). The “herbicidal effect on M: velvetleaf (criteria 0-5)” value (velvetleaf [19]) was 3 (Herbicidal rate of 40% or more and less than 70%), the “herbicidal effect on N: redroot pigweed (criteria 0-5)” value (redroot pigweed [20]) was 5 (Herbicidal rate of 90% or more (almost completely withered)) and the “herbicidal effect on O: lambsquarters (criteria 0-5)” value (lambsquarters [21]) was 2 (Herbicidal rate of 20% or more and less than 40%). For the same molecule, the “herbicidal effect on P: chickweed (criteria 0-5)” value (chickweed [22]) was 5 (Herbicidal rate of 90% or more (almost completely withered)) and the “herbicidal effect on R: persian speedwell (criteria 0-5)” value (persian speedwell [23]) was 3 (Herbicidal rate of 40% or more and less than 70%).

Source: patent publication US20230085307A1, “PYRIDAZINONE COMPOUND AND HERBICIDE” (NISSAN CHEMICAL CORPORATION, priority 2019, published 2023)
